Entries after “also recorded” stand apart in the source; their conditions may differ. Like-named read-outs stand apart in the source and are kept apart here.
Columns and labels:
[1] = tested on: colon cancer 3D organoids; test: Colon cancer 3D organoids, live/dead assay, with chemotherapy; format: cell-based; conditions: for cell death vs cell cycle arrest: colon cancer 3D organoids
Description: (§1) Organoids were grown at 37° C. and 5% CO2 in a humidified incubator. All organoids were cultured in matrigel (Corning) droplets in advanced DMEM/F12 (Lonza) supplemented with 1% glutamax, 1% Penicillin/Streptomycin, 1% (10 mM) HEPES, 10% Noggin conditioned medium, 2% B-27 (50×; (Thermo/Life Technologies), N-acetylcysteine ((Sigma-Aldrich, 1.25 mM)), A83-01 (Tocris, 500 nM) and SB203580 (Invitrogen/Life Technologies, 3 μM). To perform viability and apoptosis assays, the organoids were passaged through resuspension in ice-cold medium, followed by centrifugation in 15 ml tubes at 4° C. The resulting pellet was trypsinized for 5 minutes at 37° C. to obtain single cells and subsequently washed twice with advanced DMEM/F12 media. These cells were then resuspended in Matrigel and plated in 96-well plates in 5 ul droplets. 100 ul fresh medium was added to the wells 15 minutes later. Peptide and chemotherapy treatment was added to the organoids 2 days after plating.
(§2) A Live/dead assay was performed on both larger organoids 3 days after peptide and/or chemotherapy treatment, or on organoids that were treated as single cells and allowed to grow out for 2 weeks before the assay was performed. To perform the assay, Calcein-AM (1:1000) and Propidium Iodide (PI; 1:100) were added to the medium of the organoids to detect living and dead cells respectively. The organoids were then imaged on a Zeiss Cell Observer microscope and the signal was quantified using FIJI.

[2] = Peptide stability in solution; format: physicochemical
Description: Both peptides were dissolved in H2O and kept at room temperature. The peptide concentration was determined for the indicated time points.

[3] = tested on: normal wildtype colon organoids; test: Normal wildtype colon organoids, with or without APC depletion; format: cell-based
Description: as §1

[4] = tested on: IMR90 lung fibroblasts; test: Caspase-3/7 apoptosis assay in senescent vs healthy control IMR90 cells; format: cell-based, Human; conditions: for apoptosis induction by Caspase-3/7 activation, senescent vs healthy control cells: IMR90, FOXO4-DRI as control
Description: (§3) Human IMR90, WI38 and RPE cells were grown in Dulbecco's Modified Eagle's Medium (DMEM; Lonza) containing 10% FCS and 1% pen/strep at 37° C. with 3.0% 02 and 5.0% CO2. To induce senescence, cells were irradiated with 10Gy ionizing radiation (Gammacell 1000) and were left for a minimum of 10 days to become senescent.
(§4) To perform viability and apoptosis assays, cells were split into 96-well plates and treated with peptides 2 days later. Non-senescent and cancer cells were plated 1500 cells/well, while senescent cells were plated at 8.000 cells/well.
(§5) For a caspase assay, Caspase-Glo 3/7 assay reagent (Promega) was added to the medium 2 days after treatment. The plates were then incubated in aluminium foil at room temperature on a shaker for 1 hour and subsequently measured with a Luminescence Plate Reader.

[5] = tested on: colon carcinoma 3D organoid cultures; test: Colon carcinoma 3D organoid cultures; format: cell-based
Description: as §1

[6] = tested on: GBM8 glioblastoma cells; test: Loss of LDH (cell death) in GBM8 glioblastoma cells; format: cell-based; conditions: GBM8, vs FOXO4-DRI
Description: (§6) GBM8 cells were cultured in Dulbecco's Modified Eagle's Medium/Nutrient Mixture F-12 (DMEM F-12), containing high glucose, L-Glutamine, no phenol red, supplemented with 1% (10 mM) HEPES, 1% Penicillin/Streptomycin, 2% B-27 (50×), 5 μg/ml Heparin sodium salt from porcine intestinal mucosa Grade I-A, 20 ng/ml recombinant human Fibroblast Growth Factor (rhFGF) and 20 ng/ml recombinant human Epidermal Growth Factor (rhEGF). These cells were cultured in plastic ware coated with Matrigel Matrix (20× diluted in DMEM F-12) at 37° C., 5% CO2 and 3% O2 in a humified incubator.
as §4

[7] = tested on: GBM8 glioblastoma cells; test: Caspase-3/7 activation (apoptosis) in GBM8 glioblastoma cells; format: cell-based
Description: as §6, §4, §5

[8] = tested on: WI38 cells; test: Apoptosis in healthy WI38 cells; format: cell-based, Human; conditions: FIG. 9C
Description: as §3, §4, §5

[9] = tested on: Caspase-3/7 activation; test: Live imaging of Caspase-3/7 activation over time; format: cell-based
Description: Organoids and IMR90 cells were grown in 96-well cell culture plates and either the 488 IncuCyte Caspase 3/7 Reagent For Apoptosis (Sartorius) or the IncuCyte Caspase 3/7 red apoptosis assay reagent (Essen Bioscience) was added to the wells. Peptides were added directly before the plate was transferred to a Zeiss Cell Observer microscope that contains a Heat and CO2-controlled compartment. Subsequently, live imaging was started where a picture was recorded every 2 hours for 60 hours. Images were processed using Zen imaging software (Zeiss).

[10] = biological target: T1, TP53-TAD2 (Homo sapiens, UniProt P04637); test: Fluorescence polarization with FITC-labeled TP53-TAD2; format: binding; conditions: FITC-labeled TP53-TAD2 (250 nM), increasing concentrations of peptides
T1 construct: amino acid 37 to 57 (p53-TAD2)
Description: 116 μl of a solution of the specific peptides (ranging from 1 to 100 μM) were prepared. […] 35 μl were then transferred in each well of the 384-well plate. Measurements were performed in triplicates.
Data was acquired on a ClarioStar Plus platereader. Endpoint measurement with 200 flashes per well were performed. An excitation filter with 482 nm wavelength and emission filter with 530 nm were used and gain adjustment as well as focal height adjustment were performed for each measurement. Fluorescence intensity, parallel fluorescence polarization and perpendicular fluorescence polarization were recorded.
Data analysis was performed using MARS Version 3.4 (BMG), Microsoft Excel and GraphPad Prism Version 8.

[11] = tested on: MCF10 cells; test: Caspase assay in senescent human breast epithelial MCF10 cells; format: cell-based; conditions: 2 days, vs FOXO4-DRI/CL03001
Description: as §5

[12] = biological target: T2, full-length TP53 (Homo sapiens, UniProt P04637); test: Streptavidin bead pull-down of endogenous TP53 from HEK293T lysates with biotinylated peptide; format: binding; conditions: streptavidin beads, HEK293T cell lysates, vs FOXO4-DRI
T2 construct: endogenous TP53 from lysates ofHEK293T cells; endogenous in cells; host or cells: HEK293T

[13] = tested on: 3D colon organoids; test: Outgrowth of 3D colon organoids after peptide exposure; format: cell-based
Description: as §1
as §2, with “To perform the assay, Calcein-AM (1:1000) and Propidium Iodide (PI; 1:100) were added to the medium of the organoids to detect living and dead cells respectively.” left out

[14] = tested on: WT colon and tumor progression (TPO) organoids; test: Cell viability of WT colon and tumor progression (TPO) organoids; format: cell-based; conditions: increasing concentrations, measured 5 days later
Description: as §1

T1 sequence (P04637 37-57 limits assumed): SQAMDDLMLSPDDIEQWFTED
T2 sequence (P04637 whole entry): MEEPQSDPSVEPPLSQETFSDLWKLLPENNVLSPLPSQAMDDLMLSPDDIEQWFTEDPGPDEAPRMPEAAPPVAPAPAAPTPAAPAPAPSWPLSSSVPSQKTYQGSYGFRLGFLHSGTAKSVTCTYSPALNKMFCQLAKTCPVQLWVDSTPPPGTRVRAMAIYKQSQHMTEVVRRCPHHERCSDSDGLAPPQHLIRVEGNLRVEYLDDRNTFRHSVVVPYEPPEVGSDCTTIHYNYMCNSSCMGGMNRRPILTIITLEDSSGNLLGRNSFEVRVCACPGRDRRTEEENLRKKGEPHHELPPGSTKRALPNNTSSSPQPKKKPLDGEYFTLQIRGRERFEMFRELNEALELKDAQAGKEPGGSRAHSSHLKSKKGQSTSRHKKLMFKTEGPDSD

## O=c1[nH]cc(F)c(=O)[nH]1 [SFU, 5-fluorouracil, reference compound]
[1]
  cell death vs cell cycle arrest: merely causes a cell cycle arrest

## AKIEAAILDAFSQNBRKRRRRQRRKKRG [CL05114]
[2]
  stability in solution: superior stability

## RKKASSKIAAAILDAFSQNAWANRRSSCKRP (listed as Homo sapiens) [CL04022]
[1]; after 5′FluoroUracil or Oxaliplatin
  efficacy in organoids that survived chemotherapy: more effective
[1]
  cell death vs cell cycle arrest: induces cell death, not merely causes a cell cycle arrest
[3]; normal wildtype colon organoids
  potency against organoids: less potency
[3]; organoids depleted for APC
  efficacy against organoids: effective
[4]
  apoptosis induction by Caspase-3/7 activation, senescent vs healthy control cells: still better than the control
[5]; one Microsatellite stable (MSS) line
  efficacy against organoid cultures: ineffective
[5]; patient-derived samples
  selectivity, patient-derived colorectal cancers vs healthy control samples: selective
[5]; two microsatellite-unstable (MSI) lines
  efficacy against organoid cultures: effective
[6]
  loss of LDH (cell death), potency: more potent than FOXO4-DRI
[7]; GBM8, vs FOXO4-DRI
  Caspase3/-7 activation (apoptosis), potency: more potent than FOXO4-DRI
[7]; GBM8 glioblastoma cells, FIG. 9C
  apoptosis induction: induce apoptosis in GBM8 glioblastoma cells
[8]
  apoptosis induction: not in healthy Wi38 cells
[9]
  full Caspase-3/7 activation complete: 60 h
  start of Caspase-3/7 activation after administration: 24 h
[10]
  binding of TP53-TAD by fluorescence polarization: more potent in binding TP53-TAD than the reference compound
[2]; dissolved in H2O, room temperature, multiple days
  stability, peptide concentration over time: more stable than CL04009
[2]; in solution
  stability in solution: improved stability in solution

## RKKASSKIAAAILDAFSQNAWANRRSSCKRPPPRRRQRRKKRA (listed as Homo sapiens) [SEQ ID NO: 23]
[2]
  stability in solution: improved stability in solution

## RKKASSKIAAAILDAFSQNGWANRRSSCKRP (listed as Homo sapiens) [CL04009]
[4]
  apoptosis induction by Caspase-3/7 activation, senescent vs healthy control cells: superior selectivity to induce apoptosis by Caspase-3/7 activation in senescent, but not healthy control IMR90 lung fibroblasts; also recorded: very potent and selective capacity to induce apoptosis in senescent
[4]; IMR90, compared with FOXO4-DRI
  effective concentration (potency): effective at a lower concentration
[11]
  apoptosis induction (caspase assay), potency: more potent in inducing apoptosis
[12]
  pull-down of endogenous TP53 (binding to full-length TP53): potent in binding recombinant TP53-TAD2 and full-length TP53
[13]; 14 d after exposure
  tumor outgrowth of organoids: no more tumor outgrowth
[13]; colon organoids
  cytotoxic vs cytostatic effect: cytotoxic on colon organoids and not just cytostatic

## RKKASSKIAAAILDAFSQNWRRKR (listed as Homo sapiens) [CL04088]
[4]
  apoptosis induction by Caspase-3/7 activation, senescent vs healthy control cells: superior to peptide CL04022

## RKKASSKIEAAILDAFSQNWRRKRPPRRRQRRKKRG (listed as Homo sapiens) [CL04124]
[14]
  cell viability, sensitivity of organoids with colorectal cancer associated mutations: sensitizes to FOXO4-based peptides, dependent on p53

From US12653862B2, “Anti-senescence compounds and uses thereof” (CLEARA BIOTECH B.V., priority 2020, dated 2026)
